{"source": "patent US5389621A", "about": "“Method of enhancing the anticoagulant effects of aspirin using salicylamide” (University of Medicine and Dentistry of New Jersey, priority 1994, dated 1995)", "key": {"[1]": {"test": "Plasma kinetics of total 14C after oral 14C-salicylamide alone or with aspirin", "type": "in vivo, male Sprague-Dawley rats", "settings": "for AUC.infin. of 14C: mean ± SE, n=6", "description": "(§1) Male adult Sprague-Dawley rats (300-325 gm) obtained from Charles River Breeding Laboratory, N. Wilmington, Mass. were quarantined for one week. All animals were identified by ear punching. Food and water were provided ad libitum. The animals were maintained on rodent lab chow diet in a controlled environment with 50% humidity and 12 hour light/dark cycle.\n(§2) Two dose combinations were employed. The low dose was 10 and/or 3 mg/kg of ASA and/or SAM, respectively, while the high dose was double the low dose. These doses were approximately equal (w/w) to that in commercially available combinations, e.g., BC® formula, when administered to humans.\n(§3) Rats were divided into 2 groups; the first group consisted of 30 rats which were assigned to 5 subgroups, 6 rats each, according to the following treatment scheme:\n(§4) The second group consisted of 4 subgroups and were administered double the dose received by the first group (with the exception of subgroup III).\nThe rats were fasted overnight (~18 hr.) before administration of the treatments and were allowed water ad libitum. The drug(s) to be given were prepared fresh in the morning of the study, dissolved in 2.5 ml of deionized water and gavaged to rats. […]\n(§5) The samples were collected by heparinized plastic syringes and transferred to polyethylene test tubes. The samples, ~300 μl each, were rapidly centrifuged at 1800×g for 15 minutes at 4° C.\n(§6) The terminal elimination rate constant (ke) was estimated by linear regression of the terminal β phase of the plasma concentration vs. time curves. The area under the curve (AUC.infin.) was calculated by using the trapezoidal method from zero to the last measured plasma concentration. The half-life of elimination (t1/2β) was obtained by the equation t1/2β =0.693/ke.\n(§7) Total body clearance (ClT) was estimated by the equation ClT =Dose/AUC assuming a complete absorption of ASA and SAM (Iwamoto et al., 1982; Iwamoto et al., 1983). The apparent volume of distribution Vd was calculated from the formula, Vd =ClT /ke."}, "[2]": {"test": "Plasma kinetics of total 14C after oral 14C-aspirin alone or with salicylamide", "type": "in vivo, male Sprague-Dawley rats", "settings": "for Effect on AUC.infin. of 14C / Effect on total body clearance (ClT) of 14C: after 14C-ASA; for AUC.infin. of 14C: mean ± SE, n=6", "description": "as §1, §2, §3, §4\nThe rats were fasted overnight (~18 hr.) before administration of the treatments and were allowed water ad libitum. The drug(s) to be given were prepared fresh in the morning of the study, dissolved in 2.5 ml of deionized water and gavaged to rats.\nThe specific activity of ASA was 739 and 369 dpm/μg for the low and high dose treatments, respectively.\nas §5, §6, §7"}, "[3]": {"settings": "ASA 20 mg/kg with 14C-SAM 6 mg/kg"}, "[4]": {"settings": "oral 14C-SAM 3 mg/kg, alone or with ASA 10 mg/kg"}, "[5]": {"settings": "oral 14C-SAM 6 mg/kg, alone or with ASA 20 mg/kg"}, "[6]": {"settings": "oral 14C-ASA 10 mg/kg, alone or with SAM 3 mg/kg"}, "[7]": {"settings": "oral 14C-ASA 20 mg/kg, alone or with SAM 6 mg/kg"}}, "note": "Entries after “also recorded” stand apart in the source; their conditions may differ.", "data": [{"smiles": "CC(=O)Oc1ccccc1C(=O)O", "note": "[ASA, acetylsalicylic acid]", "values": [{"measurement": "Effect of ASA on AUC.infin. of 14C after 14C-SAM", "setting": "[1]; [3]", "value": "significantly increased"}, {"measurement": "Effect of ASA on elimination half-life of 14C after 14C-SAM", "setting": "[1]; [3]", "value": "significantly increased"}, {"measurement": "Effect of ASA on SAM kinetics", "setting": "[1]; ASA low dose 10 mg/kg", "value": "did not significantly effect SAM kinetics"}, {"measurement": "Effect of ASA on total body clearance of SAM", "setting": "[1]; low and high dose combinations", "value": "tended to decrease"}]}, {"smiles": "NC(=O)c1ccccc1O", "note": "[SAM, Salicylamide]", "values": [{"measurement": "Effect on AUC.infin. of 14C", "setting": "[2]", "value": "further increased, albeit not significantly"}, {"measurement": "Effect on total body clearance (ClT) of 14C", "setting": "[2]", "value": "tended to decrease the ClT after the high dose combination"}, {"measurement": "Duration of the SAM effect on plasma 14C", "setting": "[2]; following coadministration with 14C-ASA", "value": "approximately 4 hours"}, {"measurement": "Increase of Cmax of total 14C by SAM", "setting": "[2]; high dose 14C-ASA coadministration", "value": "~25", "unit": "%"}, {"measurement": "Effect of SAM on 14C-ASA absorption half-life", "setting": "[2]; rat, in vivo", "value": "no effect"}, {"measurement": "Effect of SAM coadministration on Cmax / plasma level of total 14C", "setting": "[2]; with 14C-ASA", "value": "enhanced maximum plasma concentration (Cmax) of total ^14 C dose-dependently; also recorded: dose-dependently increases the plasma level of total ^14 C radioactivity"}]}, {"smiles": "N[14C](=O)c1ccccc1O", "note": "[^14 C-SAM]", "values": [{"measurement": "C1T total body clearance of 14C", "setting": "[1]; [4]", "value": "543.7 ± 89.5", "unit": "mL/h"}, {"measurement": "Cmax of 14C", "setting": "[1]; [4]", "value": "1800 ± 300", "unit": "ng/mL"}, {"measurement": "T1/2β elimination half-life of 14C", "setting": "[1]; [4]", "value": "1.1 ± 0.24", "unit": "h"}, {"measurement": "Vd apparent volume of distribution of 14C", "setting": "[1]; [4]", "value": "975 ± 152", "unit": "mL"}, {"measurement": "AUC.infin. of 14C", "setting": "[1]; [4]", "value": "1.9 ± 0.4", "unit": "μ · hr/ml"}, {"measurement": "C1T total body clearance of 14C", "setting": "[1]; [5]", "value": "501.1 ± 64.9", "unit": "mL/h"}, {"measurement": "Cmax of 14C", "setting": "[1]; [5]", "value": "3700 ± 500", "unit": "ng/mL"}, {"measurement": "T1/2β elimination half-life of 14C", "setting": "[1]; [5]", "value": "1.1 ± 0.1", "unit": "h"}, {"measurement": "Vd apparent volume of distribution of 14C", "setting": "[1]; [5]", "value": "824 ± 156", "unit": "mL"}, {"measurement": "AUC.infin. of 14C", "setting": "[1]; [5]", "value": "3.9 ± 0.5", "unit": "μ · hr/ml"}]}, {"smiles": "CC(=O)Oc1ccccc1[14C](=O)O", "note": "[^14 C-ASA]", "values": [{"measurement": "Effect on AUC.infin. of 14C", "setting": "[2]", "value": "showed a dose dependent increase"}, {"measurement": "Effect on total body clearance (ClT) of 14C", "setting": "[2]", "value": "decreased dose-dependently"}, {"measurement": "T1/2β of 14C", "setting": "[2]; high dose, 14C-ASA alone or with SAM", "value": 5.1, "unit": "h"}, {"measurement": "Elimination half-life of 14C", "setting": "[2]; low dose of 14C-ASA alone or in combination with SAM, from 6-24 hour plasma concentrations, 10 mg/kg", "value": "2.8 to 3.2", "unit": "h"}, {"measurement": "AUC4hr of 14C (first 4 hr)", "setting": "[2]; [6]", "value": "99.6 ± 10.6", "unit": "µg·h/mL"}, {"measurement": "C1T total body clearance of 14C", "setting": "[2]; [6]", "value": "10.3 ± 1.1", "unit": "mL/h"}, {"measurement": "Cmax of 14C", "setting": "[2]; [6]", "value": "29900 ± 2300", "unit": "ng/mL"}, {"measurement": "T1/2abs absorption half-life of 14C", "setting": "[2]; [6]", "value": "9.1 ± 1.1", "unit": "min"}, {"measurement": "T1/2β elimination half-life of 14C", "setting": "[2]; [6]", "value": "3.2 ± 0.2", "unit": "h"}, {"measurement": "Vd apparent volume of distribution of 14C", "setting": "[2]; [6]", "value": "46.1 ± 2.4", "unit": "mL"}, {"measurement": "AUC.infin. of 14C", "setting": "[2]; [6]", "value": "345.7 ± 38.3", "unit": "µg·h/mL"}, {"measurement": "AUC4hr of 14C (first 4 hr)", "setting": "[2]; [7]", "value": "222.2 ± 15.3", "unit": "µg·h/mL"}, {"measurement": "C1T total body clearance of 14C", "setting": "[2]; [7]", "value": "7.7 ± 0.8", "unit": "mL/h"}, {"measurement": "Cmax of 14C", "setting": "[2]; [7]", "value": "65100 ± 8200", "unit": "ng/mL"}, {"measurement": "T1/2abs absorption half-life of 14C", "setting": "[2]; [7]", "value": "8.9 ± 0.9", "unit": "min"}, {"measurement": "Vd apparent volume of distribution of 14C", "setting": "[2]; [7]", "value": "85.5 ± 28.1", "unit": "mL"}, {"measurement": "AUC.infin. of 14C", "setting": "[2]; [7]", "value": "810.6 ± 81.7", "unit": "µg·h/mL"}]}]}
